In ChEMBL document CHEMBL1201862, “PubChem BioAssay data set” (2004):
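All cell lines were grown in 96-well plates and treated with compound for 48 hours. GI50: concentration for 50% inhibition of growth.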 Active and inactive are the calls of the source. Cut-off read from the data, not from the text of the source: active = GI50 up to about 1.1 µM and inactive = higher.

Columns and labels:
Test in all cases: NCI anticancer screen, dose series, 48 h
[1] = tested on: 786-0
[2] = tested on: ACHN
[3] = tested on: T47D
[4] = tested on: SF-539
[5] = tested on: OVCAR-3
[6] = tested on: HCT-116
[7] = tested on: IGROV-1
[8] = tested on: COLO 205
[9] = tested on: NCI-H460
[10] = tested on: SK-MEL-2
[11] = tested on: KM12
[12] = tested on: SF-295
[13] = tested on: U-251
[14] = tested on: MOLT-4
[15] = tested on: SK-MEL-5
[16] = tested on: RXF 393
[17] = tested on: CCRF-CEM
[18] = tested on: HT-29
[19] = tested on: TK-10
[20] = tested on: SN12C
[21] = tested on: MDA-N
[22] = tested on: DU-145
[23] = tested on: SF-268
[24] = tested on: EKVX
[25] = tested on: MDA-MB-231
[26] = tested on: CAKI-1
[27] = tested on: MDA-MB-435
[28] = tested on: K562
[29] = tested on: SR
[30] = tested on: A549
[31] = tested on: SW-620
[32] = tested on: NCI-H226
[33] = tested on: MCF7
[34] = tested on: HL-60
[35] = tested on: HOP-62
[36] = tested on: PC-3
[37] = tested on: OVCAR-8
[38] = tested on: SNB-75
[39] = tested on: Hs-578T
[40] = tested on: NCI/ADR-RES
[41] = tested on: OVCAR-5
[42] = tested on: HCC 2998
[43] = tested on: SK-OV-3
[44] = tested on: RPMI-8226
[45] = tested on: M14
[46] = tested on: LOX IMVI
[47] = tested on: UACC-62
[48] = tested on: HOP-92
[49] = tested on: UACC-257
[50] = tested on: BT-549
[51] = tested on: OVCAR-4
[52] = tested on: UO-31
[53] = tested on: A498
[54] = tested on: HCT-15
[55] = tested on: SK-MEL-28
[56] = tested on: NCI-H23
[57] = tested on: SNB-19
[58] = tested on: Malme-3M

For `c1cc2c3ccsc3c3sccc3c2s1`, the GI50 [1] was 95.9 µM (inactive), the GI50 [2] was > 100 µM (inactive) and the GI50 [3] was > 100 µM (inactive). The GI50 [4] was 90.8 µM (inactive), the GI50 [5] was > 100 µM (inactive) and the GI50 [6] was > 100 µM (inactive). For the same molecule, the GI50 [7] was 16.3 µM (inactive), the GI50 [8] was > 100 µM (inactive) and the GI50 [9] was > 100 µM (inactive). The GI50 [10] was 10.6 µM (inactive), the GI50 [11] was > 100 µM (inactive) and the GI50 [12] was > 100 µM (inactive). The GI50 [13] was > 100 µM (inactive), the GI50 [14] was 55.7 µM (inactive) and the GI50 [15] was > 100 µM (inactive). For the same molecule, the GI50 [16] was > 100 µM (inactive), the GI50 [17] was > 100 µM (inactive) and the GI50 [18] was 99.5 µM (inactive). The GI50 [19] was > 100 µM (inactive), the GI50 [20] was > 100 µM (inactive) and the GI50 [21] was > 100 µM (inactive). For the same molecule, the GI50 [22] was > 100 µM (inactive), the GI50 [23] was > 100 µM (inactive) and the GI50 [24] was > 100 µM (inactive). The GI50 [25] was > 100 µM (inactive), the GI50 [26] was > 100 µM (inactive) and the GI50 [27] was > 100 µM (inactive). For the same molecule, the GI50 [28] was > 100 µM (inactive), the GI50 [29] was 24.7 µM (inactive) and the GI50 [30] was > 100 µM (inactive). For the same molecule, the GI50 [31] was > 100 µM (inactive), the GI50 [32] was 10 µM (inactive) and the GI50 [33] was 26.9 µM (inactive). The GI50 [34] was 46.9 µM (inactive), the GI50 [35] was 21.4 µM (inactive) and the GI50 [36] was > 100 µM (inactive). For the same molecule, the GI50 [37] was > 100 µM (inactive), the GI50 [38] was 23.1 µM (inactive) and the GI50 [39] was 11.9 µM (inactive). For the same molecule, the GI50 [40] was > 100 µM (inactive), the GI50 [41] was > 100 µM (inactive) and the GI50 [42] was 36.4 µM (inactive). The GI50 [43] was > 100 µM (inactive), the GI50 [44] was > 100 µM (inactive) and the GI50 [45] was > 100 µM (inactive). For the same molecule, the GI50 [46] was > 100 µM (inactive), the GI50 [47] was > 100 µM (inactive) and the GI50 [48] was > 100 µM (inactive). The GI50 [49] was > 100 µM (inactive), the GI50 [50] was > 100 µM (inactive) and the GI50 [51] was > 100 µM (inactive). For the same molecule, the GI50 [52] was > 100 µM (inactive), the GI50 [53] was > 100 µM (inactive) and the GI50 [54] was greater than 100 µM. For the same molecule, the GI50 [55] was > 100 µM (inactive) and the GI50 [56] was 47.5 µM (inactive).

With `Nc1nncc2[nH]nnc12` the GI50 [1] was > 100 µM (inactive), the GI50 [2] was > 100 µM (inactive) and the GI50 [3] was > 100 µM (inactive). The GI50 [4] was > 100 µM (inactive), the GI50 [5] was > 100 µM (inactive) and the GI50 [6] was > 100 µM (inactive). For the same molecule, the GI50 [7] was > 100 µM (inactive), the GI50 [8] was > 100 µM (inactive) and the GI50 [9] was > 100 µM (inactive). The GI50 [10] was > 100 µM (inactive), the GI50 [11] was > 100 µM (inactive) and the GI50 [12] was > 100 µM (inactive). The GI50 [13] was > 100 µM (inactive), the GI50 [14] was 17.4 µM (inactive) and the GI50 [15] was 16.5 µM (inactive). The GI50 [16] was > 100 µM (inactive), the GI50 [17] was 11 µM (inactive) and the GI50 [18] was > 100 µM (inactive). For the same molecule, the GI50 [19] was > 100 µM (inactive), the GI50 [20] was > 100 µM (inactive) and the GI50 [21] was > 100 µM (inactive). The GI50 [22] was > 100 µM (inactive), the GI50 [23] was > 100 µM (inactive) and the GI50 [24] was > 100 µM (inactive). The GI50 [25] was > 100 µM (inactive), the GI50 [26] was > 100 µM (inactive) and the GI50 [27] was > 100 µM (inactive). For the same molecule, the GI50 [28] was 0.186 µM (active), the GI50 [29] was 22.9 µM (inactive) and the GI50 [30] was > 100 µM (inactive). For the same molecule, the GI50 [31] was 83.6 µM (inactive), the GI50 [32] was > 100 µM (inactive) and the GI50 [33] was > 100 µM (inactive). For the same molecule, the GI50 [34] was 12.8 µM (inactive), the GI50 [35] was > 100 µM (inactive) and the GI50 [36] was > 100 µM (inactive). For the same molecule, the GI50 [37] was > 100 µM (inactive), the GI50 [38] was > 100 µM (inactive) and the GI50 [39] was > 100 µM (inactive). The GI50 [40] was > 100 µM (inactive), the GI50 [57] was > 100 µM (inactive) and the GI50 [41] was > 100 µM (inactive). The GI50 [44] was > 100 µM (inactive), the GI50 [45] was > 100 µM (inactive) and the GI50 [47] was > 100 µM (inactive). The GI50 [49] was > 100 µM (inactive), the GI50 [50] was > 100 µM (inactive) and the GI50 [52] was > 100 µM (inactive). For the same molecule, the GI50 [53] was > 100 µM (inactive), the GI50 [54] was greater than 100 µM and the GI50 [55] was > 100 µM (inactive). For the same molecule, the GI50 [56] was > 100 µM (inactive).

With `Nc1n[nH]c2c1Cc1c(n(Cc3ccc(Cl)cc3)c3ccccc13)C(=O)N2` the GI50 [3] was 12.3 µM (inactive), the GI50 [4] was 15.4 µM (inactive) and the GI50 [5] was 14.1 µM (inactive). The GI50 [6] was 8.15 µM (inactive), the GI50 [7] was 12.5 µM (inactive) and the GI50 [8] was 11.5 µM (inactive). The GI50 [9] was 14 µM (inactive), the GI50 [10] was 15.9 µM (inactive) and the GI50 [12] was 17.3 µM (inactive). The GI50 [13] was > 10 µM (inactive), the GI50 [14] was 5.66 µM (inactive) and the GI50 [15] was 3.69 µM (inactive). The GI50 [16] was 5.69 µM (inactive), the GI50 [17] was 8.38 µM (inactive) and the GI50 [18] was 16.1 µM (inactive). The GI50 [19] was 15 µM (inactive), the GI50 [20] was 14.5 µM (inactive) and the GI50 [21] was 2.78 µM (inactive). For the same molecule, the GI50 [22] was 12 µM (inactive), the GI50 [23] was 17.1 µM (inactive) and the GI50 [24] was 18.7 µM (inactive). The GI50 [25] was 14.4 µM (inactive), the GI50 [26] was 11.4 µM (inactive) and the GI50 [27] was 3.71 µM (inactive). For the same molecule, the GI50 [28] was 2.65 µM (inactive), the GI50 [29] was 6.11 µM (inactive) and the GI50 [30] was 17.8 µM (inactive). For the same molecule, the GI50 [31] was 8.47 µM (inactive), the GI50 [32] was 11.1 µM (inactive) and the GI50 [33] was 10.3 µM (inactive). For the same molecule, the GI50 [34] was 3.03 µM (inactive), the GI50 [35] was 15 µM (inactive) and the GI50 [36] was 11.2 µM (inactive). For the same molecule, the GI50 [37] was 16.5 µM (inactive), the GI50 [38] was 16.2 µM (inactive) and the GI50 [39] was 13.3 µM (inactive). For the same molecule, the GI50 [58] was 14.7 µM (inactive), the GI50 [40] was 19.9 µM (inactive) and the GI50 [41] was 14.2 µM (inactive). For the same molecule, the GI50 [42] was 10.4 µM (inactive), the GI50 [43] was 18.1 µM (inactive) and the GI50 [45] was 13.2 µM (inactive). The GI50 [46] was 9.79 µM (inactive), the GI50 [47] was 20.3 µM (inactive) and the GI50 [48] was 12.9 µM (inactive). The GI50 [49] was 18 µM (inactive), the GI50 [50] was 16.5 µM (inactive) and the GI50 [51] was 13.8 µM (inactive). The GI50 [52] was 4.82 µM (inactive), the GI50 [53] was 13.7 µM (inactive) and the GI50 [54] was 4.12 µM. The GI50 [55] was 38.1 µM (inactive) and the GI50 [56] was 10.6 µM (inactive).
